Literature values, collected in patent publication US20080153832A1, “PAN-ALPHA-2 RECEPTOR AGONIST AND RELAXANT COMPOSITIONS FOR TREATING GASTROINTESTINAL MOTILITY DISORDERS” (Allergan, Inc., priority 2006, published 2008).

time to maximum serum concentration: about 1 hour
SMILES: CN(C)[C@@H](CCOc1cccc2ccccc12)c1ccccc1 [Dapoxetine]
